# Patent US4975430A, “CNQX and its analogs as therapeutics for degenerative neural diseases” (The State of Oregon Acting by and Through The State Board …, priority 1989, dated 1990)
# Columns and labels:
# non-NMDA receptors = conditions: U.S. Pat. No. 4,812,458; cited from earlier work
# [1] = target: glycine binding site (NMDA receptor); assay: 3-H-glycine binding to frontal cortex membranes; conditions: 4 nM 3-H-glycine, washed guinea pig frontal cortex membranes, 30 min on ice; read-out: IC50 for displacement of glycine
# NMDA receptor [2] = conditions: cited from earlier work; for effect on responses produced by NMDA: literature reports (Honore et al., Blake et al., Fletcher, Dryer et al.)
# NMDA receptor [3] = assay: NMDA receptor-mediated currents, whole cell patch recordings in dissociated hippocampal neurons; assay type: cell-based, rat; conditions: for effect on NMDA receptor-mediated current: 30 uM NMDA
# [4] = tested on: non-NMDA receptor for kainate; assay: kainate-mediated current in dissociated hippocampal neurons (control experiment); assay type: cell-based, rat; conditions: 10 uM CNQX, 20 uM kainate
SMILES,effect on excitation of spinal cord neurons induced by stimulation of non-NMDA receptors (non-NMDA receptors),IC50 [1],effect on responses produced by NMDA (NMDA receptor [2]),"effect on NMDA receptor-mediated current (NMDA receptor [3]; 10 uM CNQX, 1 uM glycine (FIG. 2A))","effect on NMDA receptor-mediated current (NMDA receptor [3]; 10 uM CNQX, 100 uM glycine)","effect on NMDA receptor-mediated current (NMDA receptor [3]; 30 uM CNQX, 200 uM glycine, reversed by 500 uM NMDA (FIG. 2B))",dependence of CNQX effects on membrane potential (NMDA receptor [3]; currents recorded at +40 mv and -40 mV),"glycine potentiation of NMDA receptor-mediated currents (NMDA receptor [3]; varying glycine, 10 uM or 30 uM CNQX (FIG. 1))",effect on kainate-mediated current ([4]; 1 uM glycine),effect of glycine on suppression of kainate-mediated current ([4]; glycine 1000 uM),effect on NMDA concentration response curve (NMDA receptor [2]; Birch et al. 1988),"effect on maximal response to NMDA (NMDA receptor [2]; high antagonist concentrations, Birch et al. 1988)"
"N#Cc1cc2[nH]c(=O)c(=O)[nH]c2cc1[N+](=O)[O-] [CNQX, 6-cyano-7-nitroquinoxaline 2,3-dione]",depress the excitation,5.7 µM,little or no effect,suppresses the response,substantially no effect,relatively low suppression,not dependent on membrane potential,complete potentiation is not achieved,complete suppression,no effect on this suppression,–,–
"O=c1[nH]c2cc([N+](=O)[O-])c([N+](=O)[O-])cc2[nH]c1=O [DNQX, 6,7-dinitro-quinoxaline-2,3-dione]",depress the excitation,–,little or no effect,–,–,–,–,–,–,–,shift to the right,decrease in maximal response
